What all share (assay): relative viability (nuclei count vs DMSO), 5 days (fraction); higher = more cells survive
Compound in assay [1]: C(C(=O)C(=O)O)Br [Bromopyruvate] + COc1cc2c(Oc3ccc(NC(=O)C4(C(=O)Nc5ccc(F)cc5)CC4)cc3F)ccnc2cc1OCCCN1CCOCC1 [Foretinib] (partner 0.25 µM)
The method, boiled down: (§1)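 Values are medians from duplicate plates. Each reflects relative viability, defined as the nuclei count of treated wells over that of vehicle wells. Lung cancer cell lines in 1536-well plates were pin-tool dosed one day after seeding with one drug alone or with a fixed anchor-drug dose plus five library-drug doses (not always all listed) in √10 steps, then fixed, stained and imaged at 4× after 5 days.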

Compound in assay [2]: CC(O)(CS(=O)(=O)c1ccc(F)cc1)C(=O)Nc1ccc(C#N)c(C(F)(F)F)c1 [Bicalutamide] + CC(=O)c1c(C)c2cnc(Nc3ccc(N4CCNCC4)cn3)nc2n(C2CCCC2)c1=O [Palbociclib] (partner 0.5 µM)
In a few lines: as §1

Compound in the next assay: CC(O)(CS(=O)(=O)c1ccc(F)cc1)C(=O)Nc1ccc(C#N)c(C(F)(F)F)c1 [Bicalutamide]
The method, boiled down:
(§2)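 Viability was read as treated-well nuclei divided by vehicle-well nuclei, using the median across plates. Lung cancer cell lines in 1536-well plates were kept overnight at 37 °C, pinned with five √10-spaced library-drug doses, and after 5 days were Hoechst-stained, imaged at 4× and counted in MetaXpress. Plates passed only with control CV below 25% and at least one doubling.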

Compound in the next assay: C(C(=O)C(=O)O)Br [Bromopyruvate]
The method, boiled down:
as §2

For the cell line UMC-11, the relative viability in assay [1] (first compound 1 µM) stood at 1.05; in assay [1] (first compound 3.162 µM), 1.02; in assay [1] (first compound 10 µM), 1.04; in assay [1] (first compound 31.62 µM) it was 0.989; in assay [1] (first compound 100 µM), 0.987; in assay [2] (first compound 0.08 µM), 0.34. The relative viability in assay [2] (first compound 0.253 µM) was determined as 0.367; in assay [2] (first compound 0.8 µM), 0.319; in assay [2] (first compound 2.53 µM), 0.347; with Bicalutamide (0.08 µM) it was 0.958; with Bicalutamide (0.253 µM), 0.909; with Bicalutamide (0.8 µM), 1.17. Also, the relative viability with Bicalutamide (2.53 µM) stood at 0.938; in the assay with Bromopyruvate (1 µM), 1.03; in the assay with Bromopyruvate (3.162 µM), 0.989; with Bromopyruvate (10 µM), 0.908; with Bromopyruvate (31.62 µM), 0.958; in the assay with Bromopyruvate (100 µM), 1.

Values taken from the supplement of paper PMC10307832.
